The source made the active and inactive calls.
Experiments:
INS1 = assay: beta cell apoptosis inhibitors, cytokine rescue, dose response, luminescence, retest (AID 449756); format: functional, cell-based; conditions: Rattus norvegicus;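 further: cell death triggered by IL-1 beta plus TNF-alpha plus IFN-gamma mixture; protective hits raise ATP signal compared with cytokine alone wells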
[1] = inhibitors of intracellular T. cruzi replication, confirmation, NIH3T3 host cells, beta-gal luminescence (AID 2044); format: functional, cell-based;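 further: intracellular parasites grown in NIH/3T3 mouse fibroblasts as host cells; luminescent beta-galactosidase reporter signal from transgenic T. cruzi replicating inside host cells; inhibitors lower the luminescence signal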
cells = format: functional, cell-based; conditions: HEK-CNG
BJ [2] = assay: cells; format: functional, cell-based; conditions: Homo sapiens
[3] = cytotoxicity toward DRD oncogenic fibroblasts, dose response, cell-based, non-viral oncogenic, luminescence (AID 1934); format: functional; conditions: Homo sapiens
Paired box protein Pax-8 = Paired box protein Pax-8 (Homo sapiens, UniProt Q06710); assay: inhibitors of PAX8-driven TPO luciferase reporter, dose response, RMG-I cells, cherry-pick (AID 687027); format: functional, cell-based;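 further: luciferase reporter driven by Pax8 target thyroperoxidase promoter measured by SteadyGlo luminescence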
Paired box protein Pax-8, sequence (Q06710 whole entry): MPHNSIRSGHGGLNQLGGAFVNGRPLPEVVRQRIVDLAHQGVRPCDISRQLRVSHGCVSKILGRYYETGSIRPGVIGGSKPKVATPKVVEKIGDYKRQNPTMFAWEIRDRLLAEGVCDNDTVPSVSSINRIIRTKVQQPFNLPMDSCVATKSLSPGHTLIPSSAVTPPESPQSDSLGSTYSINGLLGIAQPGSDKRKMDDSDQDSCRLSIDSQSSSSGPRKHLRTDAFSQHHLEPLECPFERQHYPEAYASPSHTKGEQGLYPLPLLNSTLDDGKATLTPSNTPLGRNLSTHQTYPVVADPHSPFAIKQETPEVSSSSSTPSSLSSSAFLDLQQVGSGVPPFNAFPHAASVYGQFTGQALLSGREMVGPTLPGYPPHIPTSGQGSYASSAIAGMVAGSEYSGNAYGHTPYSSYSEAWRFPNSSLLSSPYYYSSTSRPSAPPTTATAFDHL

[4] = biological target: T1, COUP transcription factor 2 (Homo sapiens, UniProt P24468); assay: Luminescence-based cell-based high throughput dose response assay to identify inhibitors of COUP-TFII (NR2F2).; format: functional;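 further: HEK293 cells transiently cotransfected with COUP-TFII expression vector and reporter; luciferase reporter luminescence driven by COUP-TFII from the pX2-168 reporter plasmid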
T1 sequence (P24468 whole entry): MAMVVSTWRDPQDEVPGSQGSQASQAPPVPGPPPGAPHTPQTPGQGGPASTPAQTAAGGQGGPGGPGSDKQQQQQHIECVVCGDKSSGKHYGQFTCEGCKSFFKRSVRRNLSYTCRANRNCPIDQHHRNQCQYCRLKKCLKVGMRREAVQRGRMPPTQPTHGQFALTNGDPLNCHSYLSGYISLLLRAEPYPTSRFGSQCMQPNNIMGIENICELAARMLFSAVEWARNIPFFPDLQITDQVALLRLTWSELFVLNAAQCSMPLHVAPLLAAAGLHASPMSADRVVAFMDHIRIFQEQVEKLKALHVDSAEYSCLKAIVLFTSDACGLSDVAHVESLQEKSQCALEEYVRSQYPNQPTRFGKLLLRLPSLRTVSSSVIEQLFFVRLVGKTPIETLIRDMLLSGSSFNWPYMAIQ

Galanin receptor type 3 = biological target: T2, Galanin receptor type 3 (Homo sapiens, UniProt O60755); assay: Fluorescence-based cell-based primary high throughput dose response assay to identify antagonists of the Galanin Receptor 3 (GalR3).; format: functional
T2 sequence (O60755 whole entry): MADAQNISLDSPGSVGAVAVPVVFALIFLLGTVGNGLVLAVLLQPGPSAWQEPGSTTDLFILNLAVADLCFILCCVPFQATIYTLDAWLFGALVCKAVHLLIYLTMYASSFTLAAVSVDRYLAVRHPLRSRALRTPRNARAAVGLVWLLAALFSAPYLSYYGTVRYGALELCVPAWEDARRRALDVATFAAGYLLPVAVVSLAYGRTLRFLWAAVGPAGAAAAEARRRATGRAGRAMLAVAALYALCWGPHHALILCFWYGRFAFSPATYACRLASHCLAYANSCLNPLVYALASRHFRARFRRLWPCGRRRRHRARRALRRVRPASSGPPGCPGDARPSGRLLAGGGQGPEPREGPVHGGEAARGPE

BJ [5] = assay: cytotoxicity toward BJ-TERT fibroblasts, dose response, cell-based, RAS-independent, luminescence (AID 1933); format: functional; conditions: Homo sapiens
[6] = cytotoxicity toward NIH3T3 fibroblasts, dose response, counter-screen, cell-based, ATP luminescence, mouse fibroblasts (AID 2010); format: functional;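 further: cells exposed to compound for about 90 hours before reading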
BJ [7] = assay: cytotoxicity toward BJ-TERT-LT-ST fibroblasts, dose response, cell-based, RAS-independent, luminescence (AID 1935); format: functional; conditions: Homo sapiens;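 further: BJ fibroblasts immortalized with TERT plus LT and ST oncogenes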
[8] = biological target: T3, Sentrin-specific protease 8 (Homo sapiens, UniProt Q96LD8); format: functional
T3 sequence (Q96LD8 whole entry): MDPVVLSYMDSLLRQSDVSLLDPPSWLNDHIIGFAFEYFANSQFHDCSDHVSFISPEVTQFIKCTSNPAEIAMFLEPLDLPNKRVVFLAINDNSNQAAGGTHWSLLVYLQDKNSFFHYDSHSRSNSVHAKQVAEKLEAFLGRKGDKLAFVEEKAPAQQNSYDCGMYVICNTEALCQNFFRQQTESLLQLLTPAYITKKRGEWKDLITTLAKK

[9] = biological target: T3, Sentrin-specific protease 8; format: functional; remark: listed apart in the source
[10] = biological target: T4, Replicative DNA helicase DnaB (Mycobacterium tuberculosis, UniProt P9WMR3); assay: DnaB intein splicing inhibitors, dose response, biochemical, cell-free fluorescence (AID 449749); format: functional
T4 sequence (P9WMR3 whole entry): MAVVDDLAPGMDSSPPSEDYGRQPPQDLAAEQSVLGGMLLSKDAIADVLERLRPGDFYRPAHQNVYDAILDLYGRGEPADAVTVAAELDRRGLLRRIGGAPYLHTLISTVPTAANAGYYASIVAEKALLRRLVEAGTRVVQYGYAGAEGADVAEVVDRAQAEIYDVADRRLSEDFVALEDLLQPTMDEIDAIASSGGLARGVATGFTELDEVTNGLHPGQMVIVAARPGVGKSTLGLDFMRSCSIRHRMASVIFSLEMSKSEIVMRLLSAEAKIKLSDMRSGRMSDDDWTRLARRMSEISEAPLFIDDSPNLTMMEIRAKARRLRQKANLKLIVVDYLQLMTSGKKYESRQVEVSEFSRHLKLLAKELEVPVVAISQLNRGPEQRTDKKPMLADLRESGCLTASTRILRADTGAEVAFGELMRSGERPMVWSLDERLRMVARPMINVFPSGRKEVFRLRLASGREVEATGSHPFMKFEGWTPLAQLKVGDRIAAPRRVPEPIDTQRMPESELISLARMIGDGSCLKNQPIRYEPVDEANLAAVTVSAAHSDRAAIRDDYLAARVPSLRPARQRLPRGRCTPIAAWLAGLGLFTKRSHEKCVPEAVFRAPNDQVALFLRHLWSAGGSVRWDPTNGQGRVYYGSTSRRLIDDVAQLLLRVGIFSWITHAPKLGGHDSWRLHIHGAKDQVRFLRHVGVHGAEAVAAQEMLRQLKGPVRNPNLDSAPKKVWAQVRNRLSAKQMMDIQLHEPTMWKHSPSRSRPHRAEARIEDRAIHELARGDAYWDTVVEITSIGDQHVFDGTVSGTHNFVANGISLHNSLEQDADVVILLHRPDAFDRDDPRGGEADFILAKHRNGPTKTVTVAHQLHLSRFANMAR

Protein RecA = biological target: T5, Protein RecA (Mycobacterium tuberculosis, UniProt P9WHJ3); assay: Fluorescence Cell-Free Homogeneous Dose Retest to Identify Inhibitors of RecA-Intein Splicing Activity. [Related pubchem assays (depositor defined):AID2097, AID2223, AID489010, AID492950]; format: functional
T5 sequence (P9WHJ3 whole entry): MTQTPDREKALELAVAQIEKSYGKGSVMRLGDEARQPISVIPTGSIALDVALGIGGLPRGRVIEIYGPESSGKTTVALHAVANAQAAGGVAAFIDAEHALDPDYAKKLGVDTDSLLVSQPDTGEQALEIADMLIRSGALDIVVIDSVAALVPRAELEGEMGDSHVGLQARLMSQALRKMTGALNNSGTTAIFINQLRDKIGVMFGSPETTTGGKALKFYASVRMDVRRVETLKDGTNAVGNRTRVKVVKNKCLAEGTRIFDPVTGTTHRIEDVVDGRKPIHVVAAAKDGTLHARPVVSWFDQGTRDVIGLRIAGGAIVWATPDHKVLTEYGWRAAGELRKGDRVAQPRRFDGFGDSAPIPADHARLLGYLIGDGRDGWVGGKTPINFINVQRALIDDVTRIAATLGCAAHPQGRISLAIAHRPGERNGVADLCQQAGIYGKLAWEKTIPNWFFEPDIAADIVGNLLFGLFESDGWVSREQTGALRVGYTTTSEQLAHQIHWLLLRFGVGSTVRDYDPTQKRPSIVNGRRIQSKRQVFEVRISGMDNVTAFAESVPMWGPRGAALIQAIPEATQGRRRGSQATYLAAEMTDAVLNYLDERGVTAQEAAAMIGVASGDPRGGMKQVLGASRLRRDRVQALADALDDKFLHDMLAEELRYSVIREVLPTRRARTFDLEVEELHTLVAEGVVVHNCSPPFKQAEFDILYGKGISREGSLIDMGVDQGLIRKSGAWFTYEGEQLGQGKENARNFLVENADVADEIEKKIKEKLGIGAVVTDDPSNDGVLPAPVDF

[11] = Counterscreen for activators of the function of SWI/SNF related, matrix associated, actin dependent regulator of chromatin, subfamily a, member 2 (SMARCA2, BRM): Luminescence-based cell-based high throughput dose response assay to identify non-selective compounds using the VP16 reporter assay.; format: functional
[12] = biological target: T6, Heat shock factor protein 1 (Mus musculus, UniProt P38532); assay: HSF1 potentiators in luciferase reporter cells, confirmation, cell-based, NIH3T3, luminescence, dose retest (AID 435004); format: functional;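 further: stress induced by proteasome inhibitor MG132 added 30 min after compound; luciferase reporter driven by HSF1 response element in NIH3T3 cells; actives raise luminescence as potentiators of the MG132 stress response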
T6 sequence (P38532 whole entry): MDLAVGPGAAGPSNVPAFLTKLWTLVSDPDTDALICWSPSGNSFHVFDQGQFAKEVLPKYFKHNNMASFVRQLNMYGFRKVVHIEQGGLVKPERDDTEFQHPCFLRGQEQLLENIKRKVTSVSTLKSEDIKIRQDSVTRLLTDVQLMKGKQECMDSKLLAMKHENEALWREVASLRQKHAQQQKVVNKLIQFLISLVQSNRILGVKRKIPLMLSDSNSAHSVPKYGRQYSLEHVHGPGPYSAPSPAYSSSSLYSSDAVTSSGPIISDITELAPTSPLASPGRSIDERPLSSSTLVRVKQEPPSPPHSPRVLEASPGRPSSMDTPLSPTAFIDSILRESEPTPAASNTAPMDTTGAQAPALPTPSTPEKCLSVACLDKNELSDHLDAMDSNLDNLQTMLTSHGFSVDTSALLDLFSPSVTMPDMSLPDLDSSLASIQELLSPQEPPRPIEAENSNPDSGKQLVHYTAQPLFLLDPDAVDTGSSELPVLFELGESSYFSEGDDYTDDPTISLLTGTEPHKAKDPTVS

[13] = biological target: SWI/SNF-related matrix-associated actin-dependent regulator of chromatin subfamily A member 2 (Homo sapiens, UniProt P51531); assay: Luminescence-based cell-based high throughput dose response assay to identify activators of the function of SWI/SNF related, matrix associated, actin dependent regulator of chromatin, subfamily a, member 2 (SMARCA2, BRM).; format: functional
SWI/SNF-related matrix-associated actin-dependent regulator of chromatin subfamily A member 2, sequence (P51531 whole entry): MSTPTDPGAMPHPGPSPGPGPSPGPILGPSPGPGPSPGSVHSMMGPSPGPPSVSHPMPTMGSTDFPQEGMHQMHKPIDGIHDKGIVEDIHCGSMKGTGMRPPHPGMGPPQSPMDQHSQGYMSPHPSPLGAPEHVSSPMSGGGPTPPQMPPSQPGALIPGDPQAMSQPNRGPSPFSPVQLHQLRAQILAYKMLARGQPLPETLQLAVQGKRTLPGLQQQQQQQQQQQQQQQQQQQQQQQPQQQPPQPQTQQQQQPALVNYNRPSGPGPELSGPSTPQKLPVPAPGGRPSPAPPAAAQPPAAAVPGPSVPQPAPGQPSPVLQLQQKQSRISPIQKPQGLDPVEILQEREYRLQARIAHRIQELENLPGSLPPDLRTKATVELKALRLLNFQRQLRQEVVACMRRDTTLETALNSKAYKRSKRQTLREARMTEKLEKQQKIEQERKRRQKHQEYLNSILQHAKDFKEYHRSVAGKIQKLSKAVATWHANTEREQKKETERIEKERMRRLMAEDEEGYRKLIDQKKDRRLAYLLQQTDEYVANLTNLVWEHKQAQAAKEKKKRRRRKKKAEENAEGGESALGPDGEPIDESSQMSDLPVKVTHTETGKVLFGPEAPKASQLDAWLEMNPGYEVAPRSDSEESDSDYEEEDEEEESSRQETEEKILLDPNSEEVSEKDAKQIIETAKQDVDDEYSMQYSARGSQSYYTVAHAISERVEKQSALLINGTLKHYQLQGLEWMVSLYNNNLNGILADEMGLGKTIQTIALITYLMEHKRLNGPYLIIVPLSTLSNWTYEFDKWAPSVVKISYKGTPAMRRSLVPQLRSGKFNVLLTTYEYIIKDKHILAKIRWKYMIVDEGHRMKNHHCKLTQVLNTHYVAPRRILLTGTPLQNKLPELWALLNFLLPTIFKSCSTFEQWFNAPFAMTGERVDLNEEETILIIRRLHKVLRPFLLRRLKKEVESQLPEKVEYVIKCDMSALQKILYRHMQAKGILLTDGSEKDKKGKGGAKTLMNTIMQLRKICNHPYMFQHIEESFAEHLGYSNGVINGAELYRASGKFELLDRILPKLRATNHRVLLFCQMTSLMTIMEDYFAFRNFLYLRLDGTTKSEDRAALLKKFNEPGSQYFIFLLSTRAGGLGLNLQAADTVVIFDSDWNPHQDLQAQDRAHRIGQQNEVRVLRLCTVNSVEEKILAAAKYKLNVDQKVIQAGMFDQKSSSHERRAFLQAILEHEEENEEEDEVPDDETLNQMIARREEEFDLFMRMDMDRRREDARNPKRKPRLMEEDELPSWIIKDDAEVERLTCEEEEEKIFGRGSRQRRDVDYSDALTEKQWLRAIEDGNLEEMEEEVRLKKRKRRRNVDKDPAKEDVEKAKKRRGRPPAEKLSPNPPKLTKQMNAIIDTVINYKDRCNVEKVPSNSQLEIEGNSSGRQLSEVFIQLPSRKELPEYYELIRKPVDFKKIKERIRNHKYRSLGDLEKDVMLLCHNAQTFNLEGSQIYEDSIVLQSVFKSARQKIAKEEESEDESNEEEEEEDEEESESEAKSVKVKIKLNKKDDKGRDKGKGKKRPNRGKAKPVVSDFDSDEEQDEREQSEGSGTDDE

[14] = biological target: Ras and Rab interactor 1/Tyrosine-protein kinase ABL1 (Homo sapiens, UniProt P00519+Q13671); format: functional;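 further: biochemical TR-FRET dose-response test measuring inhibition of binding between Rin1 and Abl proteins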
Ras and Rab interactor 1/Tyrosine-protein kinase ABL1, sequence (P00519 whole entry): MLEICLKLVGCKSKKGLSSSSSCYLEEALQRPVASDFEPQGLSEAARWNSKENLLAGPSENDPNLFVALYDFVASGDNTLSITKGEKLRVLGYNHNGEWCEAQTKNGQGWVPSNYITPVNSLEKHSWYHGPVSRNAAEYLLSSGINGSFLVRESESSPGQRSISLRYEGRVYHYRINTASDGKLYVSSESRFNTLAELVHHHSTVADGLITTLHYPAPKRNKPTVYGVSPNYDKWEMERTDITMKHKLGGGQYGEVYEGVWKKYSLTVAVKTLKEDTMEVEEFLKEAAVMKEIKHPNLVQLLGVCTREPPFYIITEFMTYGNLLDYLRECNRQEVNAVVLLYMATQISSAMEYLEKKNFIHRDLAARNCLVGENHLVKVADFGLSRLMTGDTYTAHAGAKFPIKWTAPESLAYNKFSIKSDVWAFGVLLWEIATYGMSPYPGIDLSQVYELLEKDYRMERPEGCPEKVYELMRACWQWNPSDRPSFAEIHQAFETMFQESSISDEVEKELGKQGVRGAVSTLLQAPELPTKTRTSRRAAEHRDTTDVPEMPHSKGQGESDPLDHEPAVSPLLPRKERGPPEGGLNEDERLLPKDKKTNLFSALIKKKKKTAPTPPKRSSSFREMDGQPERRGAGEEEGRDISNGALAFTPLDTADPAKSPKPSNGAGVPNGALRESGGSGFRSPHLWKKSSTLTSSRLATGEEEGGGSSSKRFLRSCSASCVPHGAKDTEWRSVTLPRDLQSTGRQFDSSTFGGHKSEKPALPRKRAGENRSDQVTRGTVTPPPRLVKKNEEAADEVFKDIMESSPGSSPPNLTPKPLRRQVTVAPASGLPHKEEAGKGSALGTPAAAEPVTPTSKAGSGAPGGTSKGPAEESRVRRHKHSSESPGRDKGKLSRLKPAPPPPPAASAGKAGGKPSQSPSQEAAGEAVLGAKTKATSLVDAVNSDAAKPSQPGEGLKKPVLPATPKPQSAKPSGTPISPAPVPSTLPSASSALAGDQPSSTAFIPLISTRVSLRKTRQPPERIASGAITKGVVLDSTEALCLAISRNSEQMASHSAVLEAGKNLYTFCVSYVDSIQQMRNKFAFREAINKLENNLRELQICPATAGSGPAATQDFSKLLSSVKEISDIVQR
Ras and Rab interactor 1/Tyrosine-protein kinase ABL1, sequence (Q13671 whole entry): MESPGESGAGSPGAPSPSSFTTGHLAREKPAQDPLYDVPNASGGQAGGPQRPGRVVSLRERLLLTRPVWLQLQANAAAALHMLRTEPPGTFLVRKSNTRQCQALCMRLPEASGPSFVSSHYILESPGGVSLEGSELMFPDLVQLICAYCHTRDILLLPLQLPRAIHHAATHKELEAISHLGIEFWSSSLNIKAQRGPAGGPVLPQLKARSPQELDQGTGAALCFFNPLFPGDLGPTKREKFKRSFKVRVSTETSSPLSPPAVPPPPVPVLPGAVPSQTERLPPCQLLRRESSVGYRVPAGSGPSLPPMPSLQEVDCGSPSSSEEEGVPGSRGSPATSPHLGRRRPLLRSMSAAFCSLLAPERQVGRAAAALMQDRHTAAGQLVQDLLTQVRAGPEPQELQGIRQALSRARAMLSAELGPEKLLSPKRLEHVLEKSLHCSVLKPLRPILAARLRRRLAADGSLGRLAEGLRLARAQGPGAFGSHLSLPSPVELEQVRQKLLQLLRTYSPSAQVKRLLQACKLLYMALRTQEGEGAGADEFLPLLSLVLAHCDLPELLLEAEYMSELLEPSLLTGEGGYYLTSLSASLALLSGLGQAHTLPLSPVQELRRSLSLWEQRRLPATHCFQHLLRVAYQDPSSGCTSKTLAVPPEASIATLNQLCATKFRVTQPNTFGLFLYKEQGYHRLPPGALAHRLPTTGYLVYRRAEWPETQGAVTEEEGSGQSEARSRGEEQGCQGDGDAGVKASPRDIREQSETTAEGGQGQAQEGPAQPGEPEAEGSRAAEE

[15] = non-specific cell cytotoxicity, dose response, cytotoxicity control for PAX8 inhibitor project, plate reader, dry powder samples (AID 743021); format: functional, cell-based
HEK293 = assay: HEK293T cell cytotoxicity, dose response, cytotoxicity control, ATP luminescence, cherry-pick samples (AID 687005); format: functional, cell-based; conditions: Homo sapiens;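 further: cells exposed to compound for 48 hours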
[16] = HEK293 Cytotoxicity Assay Measured in Cell-Based System Using Plate Reader - 7071-01_Inhibitor_Dose_CherryPick_Activity_Set2.; format: functional
[17] = MC4R antagonists, dose response, counter-screen for LGR2 antagonist project, cell-based, plate reader, cherry pick (AID 743444); format: functional;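 further: transfected HEK 293 cells stimulated with alpha-MSH peptide; potency of inhibitors of the alpha-MSH evoked signal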
[18] = LGR2 antagonists, dose response, cell-based, HEK293, CRE-luciferase reporter, cherry pick, set 2 (AID 743343); format: functional;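 further: transfected cells were stimulated with diluted bursicon conditioned medium after compound addition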
[19] = HEK293 cell cytotoxicity, dose response, cytotoxicity control, plate reader, cherry-picked samples (AID 743446); format: functional, cell-based
[20] = A549 cell cytotoxicity, dose response, cytotoxicity control, plate reader, cherry-pick, antagonist series (AID 743412); format: functional, cell-based
[21] = Shn3 3'UTR reporter inhibitors, dose response, cell-based, Clone20 osteoblasts, firefly luciferase, cherry-picked (AID 624132); format: functional;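 further: firefly luciferase luminescence from reporter carrying the Shn3 3'UTR in osteoblasts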
[22] = HepG2 cell cytotoxicity, dose response, cytotoxicity control for Shn3 inhibitor project, CellTiter-Glo, cherry-picked (AID 624134); format: functional, cell-based
[23] = HepG2 cell cytotoxicity, dose response, cytotoxicity control, plate reader, cherry-pick, antagonist series (AID 743416); format: functional, cell-based
[24] = control 3'UTR Renilla luciferase suppression, dose response, counter-screen for Shn3 inhibitor project, cell-based, Clone20-Shn3RL, cherry-picked (AID 624133); format: functional

O=C(NC(Nc1nc2ccc([N+](=O)[O-])cc2s1)(C(F)(F)F)C(F)(F)F)c1cccnc1
active: AC50 (INS1) 2.6 µM | EC50 [1] 1.38 µM | EC50 (BJ [2]) 4.98 µM | EC50 [3] 10.4 µM | AC50 (Paired box protein Pax-8) 1.86 µM | IC50 [4] 8.8 µM | IC50 (Galanin receptor type 3) > 1.11 µM | EC50 (BJ [7]) 11.4 µM
inactive: EC50 (cells) > 29.9 µM
inconclusive: EC50 (BJ [5]) 8.85 µM | EC50 [6] < 6 µM

COc1cc(C(c2c(C)[nH][nH]c2=O)c2c(C)[nH][nH]c2=O)ccc1OS(=O)(=O)c1ccc(C)cc1
active: IC50 [8] 35.4 µM | IC50 [9] 20.4 µM | AC50 [10] 0.484 µM | EC50 (Protein RecA) 0.195 µM

Cc1cc(C)nc(Sc2nc(Cl)nc(N(c3ccccc3)c3ccccc3)n2)n1
inactive: EC50 [11] > 91.1 µM | EC50 [12] > 260 µM | EC50 [13] > 91.1 µM

OCC1OC(n2cnc3c(NCc4ccccc4O)ncnc32)C(O)C1O (centres undefined)
inactive: IC50 [14] > 24.5 µM
active: AC50 (Paired box protein Pax-8) 0.759 µM | AC50 [15] 4.79 µM

O=C(C[C@@H]1CC[C@@H]2[C@H](COC[C@@H](O)CN2C(=O)Nc2ccc(Cl)cc2)O1)NC1Cc2ccccc2C1
active: AC50 (HEK293) 25.2 µM | AC50 [16] 25.2 µM

O=C(Nc1ccc(N2CCN(C(=O)c3ccc(Cl)cc3)CC2)cc1)c1cc2ccccc2o1
active: AC50 [17] 28.6 µM | AC50 [18] 29.4 µM

O=C(Nc1c(-c2ccc(Cl)cc2)n[nH]c1O)c1ccc(Br)cc1
active: IC50 [8] 48 µM | IC50 [9] 34.1 µM

C[C@@H]1CCCCO[C@H](CN(C)C(=O)Nc2ccc(F)cc2)[C@H](C)CN([C@@H](C)CO)C(=O)c2cc(NS(=O)(=O)c3ccc(Cl)cc3)ccc2O1
active: AC50 (HEK293) 21.9 µM | AC50 [16] 21.9 µM

CCCCNc1c(-c2ccc(OC)c(SC3CCCCC3)c2)nc2ccc(C)cn12
active: AC50 [19] 15.5 µM | AC50 [17] 9.94 µM | AC50 [20] 22.1 µM | AC50 [18] 7.85 µM | AC50 [21] 3.68 µM | AC50 [22] 45 µM | AC50 [23] 18.4 µM | AC50 [24] 2.14 µM

COc1ccc(C2Nc3ccccc3C(=O)N2c2ccc(C)cc2)cc1COc1ccccn1 (centres undefined)
inactive: EC50 [11] > 91.1 µM | EC50 [13] > 91.1 µM

Source: ChEMBL document CHEMBL1201862, “PubChem BioAssay data set” (2004)
